# Experimental data published in USRE50528E1, “Compounds and compositions for modulating EGFR mutant kinase activities” (Yuhan Corporation, priority 2014, dated 2025).
# What was measured:
# SYK = molecular target: T1, SYK (Homo sapiens, UniProt P43405); test: Kinase inhibition assay, SYK; format: biochemical; conditions: for IC50: biochemical potency;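 on all read-outs here: purified full-length human SYK pre-incubated 30 min with compound, then ULight-TK peptide phosphorylation for 1 h, detected with Europium-labeled antibody in Lance buffer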
# T1 construct: Purified human, full-length SYK, KDR; purchased Carna Biosciences
# p-EGFR L858R/T790M = molecular target: T2, p-EGFR L858R/T790M (Homo sapiens, UniProt P00533, L858R/T790M); test: Western analysis, H1975 p-EGFR L858R/T790M; format: cell-based; conditions: for Selectivity over wildtype: p-wildtype over p-EGFR L858R, T790M: H1299 vs H1975; for IC50: molecular potency, 4 hours; for inhibition against p-EGFR L858R/T790M (in words): Western, FIG. 1
# T2 construct: phosphorylation of mutant EGFR in NSCLC lines H1975; endogenous in cells; host or cells: H1975
# [1] = test system: PC9 (EGFR del E746-A750 mutant); test: Cell viability assay, PC9; format: cell-based; conditions: for Selectivity over wildtype, Wildtype vs mutant H2073/PC9 (fold): cellular potency ratio; for IC50: cellular potency, 72-hour incubation, ATPLite, read-out: EGFR Mutants PC9;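 on all read-outs here: NSCLC PC9 cells, whose viability relies on EGFR del E746-A750, exposed to serially diluted compound for 72 h at 37 °C, ATPLite read-out, IC50, H2073 as EGFR wildtype line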
# EGFR mutant Del19/T790M = molecular target: T3, EGFR mutant Del19/T790M (Homo sapiens, UniProt P00533, DEL746-750/T790M); test: Kinase inhibition assay, EGFR del E746-A750/T790M; format: biochemical; conditions: read-out: EGFR mutants Del19/T790M
# T3 construct: truncated human JAK3, EGFR mutants such as del E746-A750; purchased Carna Biosciences
# T3 sequence (P00533 with tags, fused parts or gaps DEL746-750/T790M limits assumed): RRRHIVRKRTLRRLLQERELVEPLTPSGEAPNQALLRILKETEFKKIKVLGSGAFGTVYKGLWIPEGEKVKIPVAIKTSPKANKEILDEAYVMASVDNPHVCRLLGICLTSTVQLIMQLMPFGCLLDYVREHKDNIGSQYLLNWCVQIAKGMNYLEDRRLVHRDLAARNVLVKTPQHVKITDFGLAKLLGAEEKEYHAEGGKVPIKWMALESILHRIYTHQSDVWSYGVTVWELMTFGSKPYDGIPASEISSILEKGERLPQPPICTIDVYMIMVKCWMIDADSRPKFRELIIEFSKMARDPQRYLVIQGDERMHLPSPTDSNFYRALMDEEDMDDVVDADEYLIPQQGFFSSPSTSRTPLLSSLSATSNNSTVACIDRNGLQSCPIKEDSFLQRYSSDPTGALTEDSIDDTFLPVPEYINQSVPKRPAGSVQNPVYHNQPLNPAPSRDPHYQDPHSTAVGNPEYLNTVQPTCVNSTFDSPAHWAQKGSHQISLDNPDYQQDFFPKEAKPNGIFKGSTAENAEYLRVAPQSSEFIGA
# JAK3 = molecular target: T4, JAK3 (Homo sapiens, UniProt P52333); test: Kinase inhibition assay, JAK3; conditions: biochemical potency;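 further: IC50 against purified truncated human JAK3 preincubated with compound, then reacted with ATP and ULight-Jak1 peptide, phosphorylation read by Europium-labeled antibody LANCE detection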
# T4 construct: EGFR and JAK3 (JH1domain-catalytic) kinases, and mutant forms thereof; purchased Carna Biosciences
# T4 sequence (P52333 822-1111 limits assumed): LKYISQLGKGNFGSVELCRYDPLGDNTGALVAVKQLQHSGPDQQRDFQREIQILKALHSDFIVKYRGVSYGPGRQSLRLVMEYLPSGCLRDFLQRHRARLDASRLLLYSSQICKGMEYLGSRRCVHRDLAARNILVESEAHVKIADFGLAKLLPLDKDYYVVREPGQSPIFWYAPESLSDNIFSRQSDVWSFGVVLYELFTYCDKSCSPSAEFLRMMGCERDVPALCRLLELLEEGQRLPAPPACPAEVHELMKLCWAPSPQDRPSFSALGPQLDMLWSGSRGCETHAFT
# [2] = molecular target: T5, EGFR mutant Del19 (E746-A750) (Homo sapiens, UniProt P00533, DEL746-750); test: Kinase inhibition assay, EGFR del E746-A750; format: biochemical; conditions: read-out: EGFR mutants Del19 (E746-A750);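 further: truncated human EGFR mutant kinase, two-hour preincubation with compound, then one-hour reaction with ATP and ULight-PolyGT peptide, LANCE Europium-antibody phosphorylation readout, IC50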
# T5 construct: truncated human JAK3, EGFR mutants such as del E746-A750; purchased Carna Biosciences
# T5 sequence (P00533 with tags, fused parts or gaps DEL746-750 limits assumed): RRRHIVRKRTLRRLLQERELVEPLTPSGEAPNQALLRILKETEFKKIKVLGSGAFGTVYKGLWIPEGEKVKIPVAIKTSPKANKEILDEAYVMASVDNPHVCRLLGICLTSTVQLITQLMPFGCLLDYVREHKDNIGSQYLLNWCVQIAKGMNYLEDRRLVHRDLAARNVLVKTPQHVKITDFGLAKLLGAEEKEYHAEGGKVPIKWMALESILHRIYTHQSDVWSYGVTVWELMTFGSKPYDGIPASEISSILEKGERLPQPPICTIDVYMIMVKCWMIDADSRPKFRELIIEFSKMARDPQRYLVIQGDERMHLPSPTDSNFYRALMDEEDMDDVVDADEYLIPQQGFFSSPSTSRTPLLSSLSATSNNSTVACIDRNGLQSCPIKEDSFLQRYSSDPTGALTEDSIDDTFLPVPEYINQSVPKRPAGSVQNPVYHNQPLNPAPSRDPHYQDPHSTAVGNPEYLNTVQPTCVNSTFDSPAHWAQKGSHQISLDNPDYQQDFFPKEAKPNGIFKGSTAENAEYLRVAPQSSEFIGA
# EGFR mutant L858R = molecular target: T6, EGFR mutant L858R (Homo sapiens, UniProt P00533, L858R); test: Kinase inhibition assay, EGFR L858R; format: biochemical; conditions: read-out: EGFR mutants L858R;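 further: truncated human EGFR L858R kinase with compound preincubation, ULight-PolyGT peptide phosphorylation read by Europium-antibody Lance detection, IC50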
# T6 construct: truncated human JAK3, EGFR mutants such as del E746-A750; purchased Carna Biosciences
# KDR = molecular target: T7, KDR (Homo sapiens, UniProt P35968); test: Kinase inhibition assay, KDR; format: biochemical; conditions: for IC50: biochemical potency;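 on all read-outs here: purified full-length human KDR, 30 min preincubation with compound, then 1 h reaction with ATP and Ulight-Jak1 peptide substrate, phosphorylation read by Lance Europium antibody detection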
# T7 construct: Purified human, full-length SYK, KDR; purchased Carna Biosciences
# T7 sequence (P35968 20-1356): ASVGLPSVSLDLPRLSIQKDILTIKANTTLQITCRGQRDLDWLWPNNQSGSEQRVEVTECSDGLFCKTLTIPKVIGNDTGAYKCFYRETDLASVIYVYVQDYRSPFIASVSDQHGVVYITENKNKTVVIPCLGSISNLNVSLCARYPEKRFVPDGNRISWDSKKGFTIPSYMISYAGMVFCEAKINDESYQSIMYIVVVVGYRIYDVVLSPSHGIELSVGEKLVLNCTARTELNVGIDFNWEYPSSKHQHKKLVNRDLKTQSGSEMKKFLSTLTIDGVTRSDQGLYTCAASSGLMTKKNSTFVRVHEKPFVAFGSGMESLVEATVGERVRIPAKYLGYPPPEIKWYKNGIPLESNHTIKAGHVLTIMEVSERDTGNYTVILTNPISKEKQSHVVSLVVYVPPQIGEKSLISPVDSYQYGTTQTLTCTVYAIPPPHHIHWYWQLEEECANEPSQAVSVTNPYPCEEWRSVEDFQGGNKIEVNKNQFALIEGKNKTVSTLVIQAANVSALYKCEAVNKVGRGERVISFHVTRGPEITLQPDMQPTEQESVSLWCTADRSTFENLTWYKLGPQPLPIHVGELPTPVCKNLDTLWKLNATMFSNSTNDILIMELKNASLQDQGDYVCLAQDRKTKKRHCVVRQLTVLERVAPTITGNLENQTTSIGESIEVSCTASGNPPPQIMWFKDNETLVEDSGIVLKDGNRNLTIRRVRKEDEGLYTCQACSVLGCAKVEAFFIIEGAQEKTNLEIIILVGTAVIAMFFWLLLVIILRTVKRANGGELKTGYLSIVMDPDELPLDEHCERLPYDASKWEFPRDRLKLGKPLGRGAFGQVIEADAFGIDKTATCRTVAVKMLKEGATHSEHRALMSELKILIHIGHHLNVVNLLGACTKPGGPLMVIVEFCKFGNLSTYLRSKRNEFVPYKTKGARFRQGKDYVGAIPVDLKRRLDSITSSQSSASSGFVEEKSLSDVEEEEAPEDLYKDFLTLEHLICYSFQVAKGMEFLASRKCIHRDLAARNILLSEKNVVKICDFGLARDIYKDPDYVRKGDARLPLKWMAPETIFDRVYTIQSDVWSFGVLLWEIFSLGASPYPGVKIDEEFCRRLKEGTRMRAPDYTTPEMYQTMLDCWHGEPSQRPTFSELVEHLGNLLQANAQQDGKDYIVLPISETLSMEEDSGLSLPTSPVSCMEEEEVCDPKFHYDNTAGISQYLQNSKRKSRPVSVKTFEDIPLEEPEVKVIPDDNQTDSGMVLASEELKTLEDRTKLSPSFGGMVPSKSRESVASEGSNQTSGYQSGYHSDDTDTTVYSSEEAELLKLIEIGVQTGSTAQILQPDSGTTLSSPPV
# p-EGFR del E746-A750 = molecular target: T8, p-EGFR del E746-A750 (Homo sapiens, UniProt P00533, DEL746-750); test: Western analysis, PC9 p-EGFR del E746-A750; format: cell-based; conditions: for Selectivity over wildtype: p-wildtype over p-EGFR del19: H1299 vs PC9; for IC50: molecular potency, 4 hours, read-out: PC9 p-EGFR del 19 (E746-A750); for inhibition against p-EGFR del E746-A750 (in words): Western, FIG. 1
# T8 construct: phosphorylation of mutant EGFR in NSCLC lines PC9; endogenous in cells; host or cells: PC9
# H2073 (EGFR wildtype) = test: Cell viability assay, H2073; format: cell-based; conditions: for IC50: NCI-H2073, cellular potency, 72-hour incubation, ATPLite;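 on all read-outs here: NSCLC cell line whose survival relies on wildtype EGFR, treated with serially diluted compound, cytotoxic effect judged from remaining cell viability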
# EGFR mutant L858R/T790M = molecular target: T9, EGFR mutant L858R/T790M (Homo sapiens, UniProt P00533, L858R/T790M); test: Kinase inhibition assay, EGFR L858R/T790M; format: biochemical; conditions: read-out: EGFR mutants L858R/T790M;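 further: truncated human enzyme preincubated two hours with compound, then one hour with one millimolar ATP and ULight-PolyGT peptide, Europium-labeled antibody detection, IC50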
# T9 construct: truncated human JAK3, EGFR mutants such as del E746-A750; purchased Carna Biosciences
# T9 sequence (P00533 669-1210 T790M/L858R limits assumed): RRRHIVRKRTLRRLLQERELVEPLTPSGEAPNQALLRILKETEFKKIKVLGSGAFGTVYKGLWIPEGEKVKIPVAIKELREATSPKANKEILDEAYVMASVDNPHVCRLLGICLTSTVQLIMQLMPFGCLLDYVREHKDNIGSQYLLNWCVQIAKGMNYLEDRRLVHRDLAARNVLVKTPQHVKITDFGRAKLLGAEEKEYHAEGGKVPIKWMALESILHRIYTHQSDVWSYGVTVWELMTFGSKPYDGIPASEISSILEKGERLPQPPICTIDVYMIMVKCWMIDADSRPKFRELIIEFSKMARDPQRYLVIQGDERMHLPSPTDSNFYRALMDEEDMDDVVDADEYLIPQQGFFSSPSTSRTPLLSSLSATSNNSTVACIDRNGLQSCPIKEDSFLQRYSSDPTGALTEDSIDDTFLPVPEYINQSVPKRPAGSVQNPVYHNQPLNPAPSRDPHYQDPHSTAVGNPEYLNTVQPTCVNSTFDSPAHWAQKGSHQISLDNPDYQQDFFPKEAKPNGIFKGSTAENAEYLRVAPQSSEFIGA
# [3] = test system: H1975 (EGFR L858R/T790M mutant); test: Cell viability assay, H1975; format: cell-based; conditions: for IC50: Homo sapiens, NCI-H1975, cellular potency, 72-hour incubation, ATPLite, read-out: EGFR Mutants H1975; for Selectivity over wildtype, Wildtype vs mutant H2073/H1975 (fold): cellular potency ratio;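 on all read-outs here: NSCLC cells whose survival relies on EGFR L858R/T790M, exposed 72 h to serially diluted compound, ATP-based viability readout, with the H2073 line (wildtype EGFR dependent) as wildtype comparator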
# EGFR mutant T790M = molecular target: T10, EGFR mutant T790M (Homo sapiens, UniProt P00533, T790M); test: Kinase inhibition assay, EGFR mutant T790M; conditions: biochemical potency;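 further: truncated human EGFR mutant enzyme preincubated two hours with compound, then ATP plus ULight-PolyGT peptide for one hour, Europium-labeled antibody LANCE detection, IC50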
# T10 construct: truncated human JAK3, EGFR mutants such as del E746-A750; purchased Carna Biosciences
# T10 sequence (P00533 669-1210 T790M limits assumed): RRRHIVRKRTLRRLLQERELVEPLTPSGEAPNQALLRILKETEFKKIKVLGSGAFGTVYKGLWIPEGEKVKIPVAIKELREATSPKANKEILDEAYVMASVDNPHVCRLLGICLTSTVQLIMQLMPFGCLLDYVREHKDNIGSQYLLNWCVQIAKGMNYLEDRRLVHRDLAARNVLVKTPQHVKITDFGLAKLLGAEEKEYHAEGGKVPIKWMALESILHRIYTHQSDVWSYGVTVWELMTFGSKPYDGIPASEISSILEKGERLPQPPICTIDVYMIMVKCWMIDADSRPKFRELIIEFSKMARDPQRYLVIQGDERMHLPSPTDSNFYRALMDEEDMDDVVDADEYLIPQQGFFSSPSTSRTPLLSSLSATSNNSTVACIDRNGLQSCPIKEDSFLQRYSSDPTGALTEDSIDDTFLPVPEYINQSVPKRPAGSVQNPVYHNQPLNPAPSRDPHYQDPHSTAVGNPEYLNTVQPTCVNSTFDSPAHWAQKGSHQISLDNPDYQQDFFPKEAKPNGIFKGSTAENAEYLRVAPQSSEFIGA
# p-EGFR wildtype = molecular target: T11, p-EGFR wildtype (Homo sapiens, UniProt P00533); test: Western analysis, H1299 p-EGFR wildtype; format: cell-based; conditions: for IC50: molecular potency, 4 hours, 3 nM EGF ligand; for inhibition against p-EGFR wildtype (in words): Western, FIG. 1
# T11 construct: endogenous in cells; host or cells: H1299
# T11 sequence (P00533 25-1210): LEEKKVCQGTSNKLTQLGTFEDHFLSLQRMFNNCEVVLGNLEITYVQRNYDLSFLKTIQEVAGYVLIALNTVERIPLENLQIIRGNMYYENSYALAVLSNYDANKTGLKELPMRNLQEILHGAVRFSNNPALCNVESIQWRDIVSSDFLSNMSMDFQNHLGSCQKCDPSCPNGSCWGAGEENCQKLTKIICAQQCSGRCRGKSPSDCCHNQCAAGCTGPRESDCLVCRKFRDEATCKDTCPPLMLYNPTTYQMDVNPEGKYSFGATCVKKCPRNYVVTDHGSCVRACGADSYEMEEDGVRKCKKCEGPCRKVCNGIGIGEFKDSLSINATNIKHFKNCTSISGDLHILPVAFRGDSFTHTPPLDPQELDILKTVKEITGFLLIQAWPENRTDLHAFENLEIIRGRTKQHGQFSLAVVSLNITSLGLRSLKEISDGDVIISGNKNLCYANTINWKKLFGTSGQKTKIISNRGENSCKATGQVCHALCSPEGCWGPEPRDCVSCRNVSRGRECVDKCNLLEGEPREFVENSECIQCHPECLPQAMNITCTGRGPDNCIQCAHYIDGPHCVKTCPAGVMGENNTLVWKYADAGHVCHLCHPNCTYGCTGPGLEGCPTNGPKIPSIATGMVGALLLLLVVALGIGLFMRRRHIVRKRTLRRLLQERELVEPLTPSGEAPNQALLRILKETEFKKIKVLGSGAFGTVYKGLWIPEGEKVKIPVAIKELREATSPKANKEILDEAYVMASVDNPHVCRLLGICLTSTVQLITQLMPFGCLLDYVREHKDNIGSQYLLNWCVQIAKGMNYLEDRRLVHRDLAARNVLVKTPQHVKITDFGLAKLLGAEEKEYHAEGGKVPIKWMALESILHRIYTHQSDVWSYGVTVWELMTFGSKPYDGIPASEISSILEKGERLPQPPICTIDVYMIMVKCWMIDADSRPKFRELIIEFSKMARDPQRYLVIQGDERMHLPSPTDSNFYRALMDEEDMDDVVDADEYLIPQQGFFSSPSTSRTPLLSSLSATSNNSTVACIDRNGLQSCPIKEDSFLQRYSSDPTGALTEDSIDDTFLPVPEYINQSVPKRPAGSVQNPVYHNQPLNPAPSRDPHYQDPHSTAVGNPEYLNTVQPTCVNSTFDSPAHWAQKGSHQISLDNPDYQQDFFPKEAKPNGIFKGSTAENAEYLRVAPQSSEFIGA
# [4] = approximate ATP Km concentration
Compound,IC50 (SYK) [nM],"Selectivity over wildtype: p-wildtype over p-EGFR L858R, T790M (p-EGFR L858R/T790M)",IC50 (p-EGFR L858R/T790M) [nM],"Selectivity over wildtype, Wildtype vs mutant H2073/PC9 (fold) [1]",IC50 [1] [nM],IC50 (EGFR mutant Del19/T790M) [nM],IC50 (JAK3) [nM],IC50 [2] [nM],IC50 (EGFR mutant L858R) [nM],IC50 (KDR) [nM],Selectivity over wildtype: p-wildtype over p-EGFR del19 (p-EGFR del E746-A750),IC50 (p-EGFR del E746-A750) [nM],IC50 (H2073 (EGFR wildtype)) [nM],IC50 (EGFR mutant L858R/T790M) [nM],IC50 [3] [nM],"Selectivity over wildtype, Wildtype vs mutant H2073/H1975 (fold) [3]",IC50 (EGFR mutant T790M) [nM],IC50 (p-EGFR wildtype) [nM],further results
"C=CC(=O)Nc1cc(Nc2nccc(-n3cc(CN4CCC4)c(C)n3)n2)c(OC)cc1N1CCOCC1 [Compound 14, N-(5-(4-(4-(azetidin-1-ylmethyl)-3-methyl-1H-pyrazol-1-yl)pyrimidin-2-ylamino)-4-methoxy-2-morpholinophenyl)acrylamide]",201 to 1000,20-100 fold,< 20,>200 fold,< 20,< 20,< 20,< 20,< 20,> 1000,>200 fold,< 20,> 1000,< 20,20 to 200,20-100 fold,< 20,> 1000,–
"C=CC(=O)Nc1cc(Nc2ncc(C)c(-n3cc(CN4C[C@H](O)[C@H](OC)C4)c(C)n3)n2)c(OC)cc1N1CCOCC1 [Compound 26, N-(5-(4-(4-(((3S,4R)-3-hydroxy-4-methoxypyrrolidin-1-yl)methyl)-3-methyl-1H-pyrazol-1-yl)-5-methylpyrimidin-2-ylamino)-4-methoxy-2-morpholinophenyl)acrylamide]",201 to 1000,>200 fold,< 20,20-100 fold,20 to 200,< 20,< 20,< 20,< 20,> 1000,>200 fold,< 20,> 1000,< 20,20 to 200,101-200 fold,< 20,> 1000,"Selectivity over wildtype: p-wildtype over p-EGFR L858R, T790M (p-EGFR L858R/T790M; listed as compound 26): 1440.3 fold; inhibition against p-EGFR L858R/T790M (in words) (p-EGFR L858R/T790M): potent inhibition; Selectivity over wildtype: p-wildtype over p-EGFR del19 (p-EGFR del E746-A750; listed as compound 26): 572.4 fold; inhibition against p-EGFR del E746-A750 (in words) (p-EGFR del E746-A750): potent inhibition; inhibition against p-EGFR wildtype (in words) (p-EGFR wildtype): not p-EGFR wildtype"
"C=CC(=O)Nc1cc(Nc2nccc(-n3cc(CN(C)C)c(C)n3)n2)c(OC)cc1N1CCOCC1 [Compound 46, N-(5-(4-(4-((dimethylamino)methyl)-3-methyl-1H-pyrazol-1-yl)pyrimidin-2-ylamino)-4-methoxy-2-morpholinophenyl)acrylamide]",201 to 1000,20-100 fold,< 20,>200 fold,< 20,< 20,< 20,< 20,< 20,> 1000,20-100 fold,< 20,> 1000,< 20,20 to 200,101-200 fold,< 20,20 to 200,–
"C=CC(=O)Nc1cc(Nc2nccc(-n3cc(CN(C)C)c(-c4ccccc4)n3)n2)c(OC)cc1N1CCOCC1 [Compound 73, N-(5-(4-(4-((dimethylamino)methyl)-3-phenyl-1H-pyrazol-1-yl)pyrimidin-2-ylamino)-4-methoxy-2-morpholinophenyl)acrylamide]",201 to 1000,20-100 fold,< 20,>200 fold,< 20,< 20,< 20,< 20,< 20,> 1000,20-100 fold,< 20,> 1000,< 20,< 20,>200 fold,< 20,201 to 1000,"inhibition of the kinase activity of SYK (in words) (SYK; [4]): poorly inhibit; inhibition against p-EGFR L858R/T790M (in words) (p-EGFR L858R/T790M): potent inhibition; inhibition in PC9 cell (in words) ([1]; cell viability): potent inhibition; Selectivity over wildtype, Wildtype vs mutant H2073/PC9 (fold) ([1]; listed as compound 73): > 200 fold; inhibition of the kinase activity of KDR (in words) (KDR; [4]): poorly inhibit; inhibition against p-EGFR del E746-A750 (in words) (p-EGFR del E746-A750): potent inhibition; inhibition in H2073 cell (in words) (H2073 (EGFR wildtype); cell viability): not in H2073; inhibition in H1975 cell (in words) ([3]; cell viability): potent inhibition; Selectivity over wildtype, Wildtype vs mutant H2073/H1975 (fold) ([3]; listed as compound 73): > 200 fold; inhibition against p-EGFR wildtype (in words) (p-EGFR wildtype): not p-EGFR wildtype"
"C=CC(=O)Nc1cc(Nc2nccc(-n3cc(CN(C)C)c(C4CC4)n3)n2)c(OC)cc1N1CCOCC1 [Compound 74, N-(5-(4-(3-cyclopropyl-4-((dimethylamino)methyl)-1H-pyrazol-1-yl)pyrimidin-2-ylamino)-4-methoxy-2-morpholinophenyl)acrylamide]",20 to 200,20-100 fold,< 20,>200 fold,< 20,< 20,< 20,< 20,< 20,> 1000,101-200 fold,< 20,> 1000,< 20,< 20,>200 fold,< 20,201 to 1000,–
"C=CC(=O)Nc1cc(Nc2nccc(-n3cc(CN4CCC4)c(-c4ccccc4)n3)n2)c(OC)cc1N1CCOCC1 [Compound 78, N-(5-(4-(4-(azetidin-1-ylmethyl)-3-phenyl-1H-pyrazol-1-yl)pyrimidin-2-ylamino)-4-methoxy-2-morpholinophenyl)acrylamide]",> 1000,101-200 fold,< 20,>200 fold,< 20,< 20,20 to 200,< 20,< 20,> 1000,>200 fold,< 20,> 1000,< 20,< 20,>200 fold,< 20,> 1000,–
"C=CC(=O)Nc1cc(Nc2ncc(C)c(-n3cc(CN(C)C)c(C4CC4)n3)n2)c(OC)cc1N1CCOCC1 [Compound 122, N-(5-(4-(3-cyclopropyl-4-((dimethylamino)methyl)-1H-pyrazol-1-yl)-5-methylpyrimidin-2-ylamino)-4-methoxy-2-morpholinophenyl)acrylamide]",20 to 200,20-100 fold,< 20,>200 fold,< 20,< 20,< 20,< 20,< 20,> 1000,20-100 fold,< 20,> 1000,< 20,< 20,>200 fold,< 20,201 to 1000,–
